The source of these data is article PMC6173406, “Design and evaluation of selective butyrylcholinesterase inhibitors based on Cinchona alkaloid scaffold” (PLoS ONE, 2018).

Where two headings read alike, the source gives them in different places.

Experiment [1] concerns the target T1, human BChE (Homo sapiens, UniProt P06276).
T1 construct: gift of Dr. F. Nachon (Département de Toxicologie, Armed Forces Biomedical Research Institute, France)
The note with it: cited from earlier work.

In experiment [2] the target is T1, human BChE. The experiment can be described thus: Reversible inhibition of human BChE, Ellman method with ATCh, Hunter-Downs analysis. More on the design: key to BChE type of inhibition: c, n and m stands for competitive, noncompetitive and mixed type of inhibition; c, n and m stands for competitive, noncompetitive and mixed type of inhibition; c, n and m stands for competitive, noncompetitive and mixed type of inhibition. The class given is biochemical. The settings on record: for BChE Ks: enzyme-substrate (ATCh) dissociation constant derived from the inhibition kinetics with the compound; for Ki(AChE)/ Ki (BChE): inhibition selectivity, ratio of Ki constants for AChE and BChE; for BChE type of inhibition: symbol in brackets after Ki; for BChE inhibition potency compared to CD-Met: fold more potent than CD-Met. The protocol:
(§1) Purified human BChE and recombinant human AChE were kindly provided by Dr. F. Nachon (Département de Toxicologie, Armed Forces Biomedical Research Institute, France). The concentration of enzymes (BChE: 5.6 μM; AChE: 0.20 μM) was determined as described previously. The concentrated stocks of enzymes were diluted in a phosphate sodium buffer 0.1 M (pH 7.4) containing 0.1% BSA.
(§2) Enzyme activities were measured spectrophotometrically by Ellman method at 412 nm using 0.30 mM DTNB as thiol reagent and ATCh (0.050–0.50 mM) as substrate in 0.1 M phosphate buffer, pH 7.4 [29, 30]. For the inhibition, the reaction mixture also contained cinchonidines or cinchonines (final concentrations 0.020–200 μM, depending on compound). In the case of compounds CD-(pCl) and CN-(pCl), the final content of DMSO was the same in enzyme activity measurement and in inhibition measurements, up to 0.32%. No side interactions of tested compounds with ATCh or DTNB were detected. Measurements were done at 25 °C on a Tecan Infinite M200Pro plate reader (Austria).
(§3) The reversible inhibition of BChE and AChE by cinchonines and cinchonidines was measured by determining the decrease of enzyme activity towards ATCh (0.050–0.50 mM) in their presence. The activities of the enzymes were measured at different substrate concentrations ([S]) in the absence (v0) and presence (vi) of given cinchonines and cinchonidines concentration ([I]) selected to inhibit the enzymes for 20–80%. At least three concentrations of inhibitors for each substrate concentration were used in at least two experiments. The apparent dissociation inhibition constant (Ki,app) was calculated using the Hunter-Downs equation and the linear regression analysis: Ki,app=vi/v0−vi⋅[I]=K(I)+K(I)/K(S)⋅[S] where y-intercept determines the enzyme-inhibitor dissociation constants (K(I)), while x-intercept determines the enzyme-substrate dissociation constant, K(S). The equation was used with the assumption that the substrate, due to relatively low substrate concentrations used in experiments, binds only to the catalytic site, while inhibitor can bind to both sites catalytic and peripheral site. In other words, if the inhibitor competes with substrate for binding to the catalytic site of the enzyme, Ki,app proportionally depend on the substrate concentration. […] The curve means that the inhibitor binds not only to the catalytic or peripheral site but also to intermediates of Michaelis type of the enzyme-substrate complex.
(In general: In Ellman's method for cholinesterases, released thiocholine reacts with DTNB.)

Another experiment has as its target T2, human AChE (Homo sapiens, UniProt P22303).
T2 construct: gift of Dr. F. Nachon (Département de Toxicologie, Armed Forces Biomedical Research Institute, France)
As to the kind of experiment: Reversible inhibition of human AChE, Ellman method with ATCh, Hunter-Downs analysis. The class given is biochemical. More on the design: key to AChE type of inhibition: c, n and m stands for competitive, noncompetitive and mixed type of inhibition; c, n and m stands for competitive, noncompetitive and mixed type of inhibition; c, n and m stands for competitive, noncompetitive and mixed type of inhibition. The settings on record: for AChE affinity lower than for the highest-affinity compounds: compared to CD-(mNO2) and CD-(mCH3); for Ki: enzyme-inhibitor dissociation constant ± standard error, ATCh 0.050–0.50 mM, pH 7.4, 25 °C; for AChE Ks: enzyme-substrate (ATCh) dissociation constant derived from the inhibition kinetics with the compound; for AChE type of inhibition: symbol in brackets after Ki. The protocol:
as §1, §2, §3

Setting [3] is: enzyme-inhibitor dissociation constant ± standard error, ATCh 0.050–0.50 mM, pH 7.4, 25 °C.

T1 sequence (P06276 29-602): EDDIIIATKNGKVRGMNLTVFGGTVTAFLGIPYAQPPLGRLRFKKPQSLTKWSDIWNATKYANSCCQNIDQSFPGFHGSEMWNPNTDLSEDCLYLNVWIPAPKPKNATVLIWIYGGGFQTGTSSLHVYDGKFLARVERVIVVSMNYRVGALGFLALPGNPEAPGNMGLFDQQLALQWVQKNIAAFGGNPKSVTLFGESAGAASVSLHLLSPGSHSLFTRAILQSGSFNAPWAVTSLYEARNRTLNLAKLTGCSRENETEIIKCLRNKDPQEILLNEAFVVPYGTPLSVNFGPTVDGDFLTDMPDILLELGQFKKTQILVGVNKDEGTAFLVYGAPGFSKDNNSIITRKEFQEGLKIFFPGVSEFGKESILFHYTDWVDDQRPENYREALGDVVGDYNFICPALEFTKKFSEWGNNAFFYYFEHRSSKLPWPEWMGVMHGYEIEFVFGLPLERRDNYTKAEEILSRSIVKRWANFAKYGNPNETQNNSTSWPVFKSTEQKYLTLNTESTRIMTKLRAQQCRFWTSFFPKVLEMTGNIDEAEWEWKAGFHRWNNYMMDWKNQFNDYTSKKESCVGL
T2 sequence (P22303 32-614): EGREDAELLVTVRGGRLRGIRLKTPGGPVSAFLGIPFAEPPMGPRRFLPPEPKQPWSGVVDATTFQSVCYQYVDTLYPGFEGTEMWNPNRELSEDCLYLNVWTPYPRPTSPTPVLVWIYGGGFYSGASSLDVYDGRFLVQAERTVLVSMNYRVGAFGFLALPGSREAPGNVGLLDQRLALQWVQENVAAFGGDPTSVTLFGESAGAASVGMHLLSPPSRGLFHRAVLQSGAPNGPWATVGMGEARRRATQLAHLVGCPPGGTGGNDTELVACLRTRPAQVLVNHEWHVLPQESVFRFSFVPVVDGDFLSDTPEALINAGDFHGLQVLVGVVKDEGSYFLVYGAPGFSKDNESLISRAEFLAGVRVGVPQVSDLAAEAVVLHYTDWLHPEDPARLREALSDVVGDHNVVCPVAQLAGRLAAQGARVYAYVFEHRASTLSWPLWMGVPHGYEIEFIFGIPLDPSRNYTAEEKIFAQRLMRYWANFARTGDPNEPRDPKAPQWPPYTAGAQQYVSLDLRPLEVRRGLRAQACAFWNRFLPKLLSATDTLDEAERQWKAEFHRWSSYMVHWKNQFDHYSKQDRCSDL

As for `CCN(CC)C(C)CN1c2ccccc2Sc2ccccc21` (stereo not drawn) [Ethopropazine], the “BChE Ks” value on human BChE [1] was 0.69 ± 0.14 mM. For the same molecule, at human BChE [1] (read-out: BChE Ki), the Ki was 0.16 ± 0.03 µM.

With `C=CC1C[N+]2(Cc3ccccc3)CCC1CC2C(O)c1ccnc2ccccc12` (stereo not drawn) [CN-Bzl], affinity on human BChE [2] (setting [3]) was put at a Ki of 2.9 ± 0.3 µM. Also, on human BChE [2], the “BChE Ks” value came to 0.29 ± 0.04 mM, the “Ki(AChE)/ Ki (BChE)” value was 42 and the “BChE type of inhibition” value was “c”. On human AChE, the “AChE affinity lower than for the highest-affinity compounds” value is listed as around 50 times, the Ki is 121 ± 12 µM, the “AChE Ks” value worked out at 1.1 ± 0.4 mM and the “AChE type of inhibition” value is given as “m”.

The molecule `C=CC1C[N+]2(Cc3cccc(Br)c3)CCC1CC2C(O)c1ccnc2ccccc12` (stereo not drawn) [CD-(mBr), N-(3-bromobenzyl) cinchonidinium bromide] gave a Ki at human BChE [2] (setting [3]) of 0.6 ± 0.03 µM. Besides, on human BChE [2], the “BChE Ks” value is 0.50 ± 0.05 mM, the “BChE inhibition potency compared to CD-Met” value came to 44 times, the “Ki(AChE)/ Ki (BChE)” value amounted to 33 and the “BChE type of inhibition” value was “m”. For the same molecule, on human AChE, the inhibition constant Ki stood at 20 ± 1 µM, the “AChE Ks” value was 0.91 ± 0.08 mM and the “AChE type of inhibition” value is on record as “m”.

In turn, `C=C[C@H]1CN2CC[C@H]1C[C@H]2[C@H](O)c1ccnc2ccccc12` [CD, cinchonidine, reference compound] had an inhibitory constant (Ki) at human BChE [2] (setting [3]) of 28 ± 4 µM. In addition, at human BChE [2], the “BChE Ks” value was 0.25 ± 0.05 mM, the “Ki(AChE)/ Ki (BChE)” value is on record as around 14 and the “BChE type of inhibition” value is given as “c”. Moreover, on human AChE, the “AChE affinity lower than for the highest-affinity compounds” value is on record as “about 160 times” and the Ki is above 400 µM.

Regarding `C=CC1C[N+]2(Cc3ccccc3)CCC1CC2C(O)c1ccnc2ccccc12` (stereo not drawn) [CD-Bzl], on human BChE [2], the Ki was at most 0.1 µM, the “BChE Ks” value was found to be 0.27 ± 0.03 mM, the “Ki(AChE)/ Ki (BChE)” value was found to be 200 and the “BChE type of inhibition” value is “c”. Also, the affinity on human BChE [2] (setting [3]), expressed as Ki, was 0.075 ± 0.007 µM. Also, at human AChE, affinity was put at a Ki of 15 ± 2 µM, the “AChE Ks” value was found to be 0.78 ± 0.3 mM and the “AChE type of inhibition” value is “m”.

On to `C=CC1C[N+]2(Cc3cccc([N+](=O)[O-])c3)CCC1CC2C(O)c1ccnc2ccccc12` (stereo not drawn) [CD-(mNO2), N-(3-nitrobenzyl) cinchonidinium bromide], for which the inhibitory constant (Ki) on human BChE [2] (setting [3]) stood at 4.7 ± 0.4 µM. Further, on human BChE [2], the “BChE Ks” value turned out to be 0.62 ± 0.1 mM, the “BChE inhibition potency compared to CD-Met” value is on record as “only five times higher” and the “BChE type of inhibition” value is on record as “m”. Further, on human AChE, the affinity corresponds to a Ki of 2.5 ± 0.2 µM, the “AChE Ks” value was 1.0 ± 0.2 mM and the “AChE type of inhibition” value is recorded as “c”.

The Ki is a dissociation constant, usually derived from enzyme kinetics or from competition with a known ligand.
